{"source": "patent US20180332847A1", "about": "“ANTIMICROBIAL METAL CARBOXYLATE-BENZISOTHIAZOLINONE MIXTURES” (Troy Corporation, priority 2017, published 2018)", "type_in_all_cases": "cell-based", "key": {"[1]": {"system": "mixed bacterial inoculum: Pseudomonas aeruginosa (ATCC #10145), Escherichia coli (ATCC #11229), Enterobacter aerogenes (ATCC #13048), Alcaligenes faecalis …", "experiment": "Two-part bacterial challenge of acrylic latex paint samples with a mixed inoculum (performance ratings)", "parameters": "key to Performance Ratings Week 1, 1 Day / Performance Ratings Week 1, 2 Days / Performance Ratings Week 1, 8 Days / Performance Ratings Week 2, 1 Day / Performance Ratings Week 2, 2 Days / Performance Ratings Week 2, 8 Days: 0: No bacterial growth; 1: Trace of bacterial growth; 2: Light bacterial growth; 3: Moderate bacterial growth; 4: Heavy bacterial growth", "conditions": "for Performance Ratings Week 1, 1 Day: Week 1, 1 Day after inoculation; for Performance Ratings Week 1, 2 Days: Week 1, 2 Days after inoculation; for Performance Ratings Week 1, 8 Days: Week 1, 8 Days after inoculation; for Performance Ratings Week 2, 1 Day: Week 2, 1 Day after inoculation; for Performance Ratings Week 2, 2 Days: Week 2, 2 Days after inoculation; for Performance Ratings Week 2, 8 Days: Week 2, 8 Days after inoculation", "procedure": "In order to quantify the antibacterial effectiveness of an antimicrobial composition of interest, samples were prepared by adding various amounts of the antimicrobial composition to identical volumes of a paint that contained no preservatives and was not contaminated by bacteria. In this case, the test sample was a white, aqueous-based, acrylic latex paint. The paint included an acrylic resin, and conventional additives such as surfactant, thickener, defoamer, and titanium oxide.\nThe samples of the paint were subjected to a two-part challenge procedure and the sample that provided acceptable anti-bacterial protection with the lowest concentration of the antimicrobial composition was identified. Each part of the anti-bacterial challenge consisted of a 7-day test cycle. The parts were performed consecutively over 14 test days.\nChallenge testing was accomplished using a mixed bacterial inoculum as the contamination event. These bacteria are Pseudomonas aeruginosa (ATCC #10145), Escherichia coli (ATCC #11229), Enterobacter aerogenes (ATCC #13048), and Alcaligenes faecalis (ATCC #25094). To prepare the test inoculum, each type of bacteria was harvested separately in nutrient broth. Just before use in the challenge test, equal strengths of each bacterial culture were mixed to obtain an inoculum of approximately 10^8 colony forming units per milliliter (cfu/mL).\nAfter incubation, both control blanks and samples containing preservatives of interest were inoculated with the mixed inoculum to a final of 1.0 weight %. […]\nPerformance ratings of 0, 1, 2, 3 or 4 for each inoculated paint sample were determined by visual inspection of the streak lines, according to the definitions set forth below in Table 25."}, "Saccharomyces cervisiae": {"system": "Saccharomyces cervisiae", "experiment": "Minimum Inhibitory Concentration (MIC) by spiral plater / spiral gradient endpoint against Saccharomyces cervisiae", "conditions": "quantity of BIT used alone that gives the desired effect; calcium gluconate-BIT series; Saccharomyces cervisiae", "procedure": "(§1) Synergistic Index=Qa/QA+Qb/QB [Equation No. 1] • where Qa=the quantity of component A used in a binary mixture that gives the desired effect • QA=the quantity of component A which when used alone gives the desired effect • Qb=the quantity of component B used in a binary mixture that gives the desired effect • QB=the quantity of component B which when used alone gives the desired effect\nMinimum Inhibitory Concentration (“MIC”) for each of the antimicrobial compositions was determined against a test microbe, which in this case was a spore suspension of the fungus Alternaria alternata, with the aid of an Autoplate 4000 spiral plater that is commercially available from Spiral Biotech, Inc., Norwood, Mass., and its accompanying spiral gradient endpoint software (hereinafter referred to as “the SGE software”). […]\nInoculated spiral gradient plates were incubated for 48 hours in an incubator at 28° C. […] This growth endpoint value (expressed in mm as measured from center point of the Petri plate) was used to calculate MIC for the mixture, expressed as parts per million.\nUtilizing the procedure described above in Example 1, Minimum Inhibitory Concentration (“MIC”) for each of the antimicrobial compositions was determined against a test microbe, which in this case was a spore suspension of the yeast Saccharomyces cervisiae. […]"}, "Pseudomonas aeruginosa": {"system": "Pseudomonas aeruginosa", "experiment": "Minimum Inhibitory Concentration (MIC) by spiral plater / spiral gradient endpoint against Pseudomonas aeruginosa", "conditions": "quantity of BIT used alone that gives the desired effect, Pseudomonas aeruginosa", "procedure": "as §1\nMinimum Inhibitory Concentration (“MIC”) for each of the antimicrobial compositions was determined against a test microbe, which in this case was a spore suspension of the fungus Alternaria alternata, with the aid of an Autoplate 4000 spiral plater that is commercially available from Spiral Biotech, Inc., Norwood, Mass., and its accompanying spiral gradient endpoint software (hereinafter referred to as “the SGE software”). The spiral plater automates the normal serial dilution method for determining MICs. Although the details of the SGE software are held confidentially by Spiral Biotech, Inc., they are believed to consistent with the principles set forth in “Measurement of MICs of antibacterial agents by spiral gradient endpoint compared with conventional dilution method” J. H. Paton, H. A. Holt, and M. J. Bywater—Int. J. Exp. Clin. Chemother, 1990.\nThe spiral plater automatically applied 54.3 micro-liters of each antimicrobial composition of interest to the surface of 150 millimeter malt agar plates using an exponential application gradient. The concentration of the antimicrobial concentration was greatest near the center of the Petri plates and decreased toward the edges. Antimicrobial composition gradients were allowed to air dry at room temperature for 1 to 4 hours at 23° C. before inoculation with test microbe. Spiral gradient plates were inoculated by streaking with cotton swabs that had been soaked in test microbe spore suspension. Streaks were applied in a radial pattern, using a paper template generated by the SGE software to guide the application. Eight radii were inoculated per Petri plate. Each radius is considered as one replicated observation.\nInoculated spiral gradient plates were incubated for 48 hours in an incubator at 28° C. Visible growth of the test microbe developed along the radial streaks and ended where the concentration of the antimicrobial composition was sufficient to prevent growth. This growth endpoint value (expressed in mm as measured from center point of the Petri plate) was used to calculate MIC for the mixture, expressed as parts per million.\nUtilizing the procedure described above in Example 1, Minimum Inhibitory Concentration (“MIC”) for each of the antimicrobial compositions was determined against a test microbe, which in this case was a spore suspension of the bacterium Pseudomonas aeruginosa. Several antimicrobial compositions containing calcium gluconate, BIT, or both in water were investigated, as shown below in Table 7.\nUtilizing the procedure described above in Example 1, Minimum Inhibitory Concentration (“MIC”) for each of the antimicrobial compositions was determined against a test microbe, which in this case was a […] Pseudomonas aeruginosa. Several antimicrobial compositions containing calcium glycerate, BIT, or both in water were investigated, as shown below in Table 13.\nUtilizing the procedure described above in Example 1, Minimum Inhibitory Concentration (“MIC”) of certain antimicrobial compositions was determined against a test microbe, which in this case was a spore suspension of the bacterium Pseudomonas aeruginosa. Several antimicrobial compositions containing zinc gluconate, BIT, or both in water were investigated, as shown below in Table 19."}}, "data": [{"molecule": "O=c1[nH]sc2ccccc12", "note": "[BIT, 1,2-benzisothiazol-3(2H)-one]", "values": [{"measurement": "Performance Ratings Week 1, 1 Day", "setting": "[1]; 50 ppm in acrylic latex paint", "value": 4}, {"measurement": "Performance Ratings Week 1, 2 Days", "setting": "[1]; 50 ppm in acrylic latex paint", "value": 4}, {"measurement": "Performance Ratings Week 1, 8 Days", "setting": "[1]; 50 ppm in acrylic latex paint", "value": 4}, {"measurement": "Performance Ratings Week 2, 1 Day", "setting": "[1]; 50 ppm in acrylic latex paint", "value": 4}, {"measurement": "Performance Ratings Week 2, 2 Days", "setting": "[1]; 50 ppm in acrylic latex paint", "value": 4}, {"measurement": "Performance Ratings Week 2, 8 Days", "setting": "[1]; 50 ppm in acrylic latex paint", "value": 4}, {"measurement": "Performance Ratings Week 1, 1 Day", "setting": "[1]; 500 ppm in acrylic latex paint", "value": 4}, {"measurement": "Performance Ratings Week 1, 2 Days", "setting": "[1]; 500 ppm in acrylic latex paint", "value": 2}, {"measurement": "Performance Ratings Week 1, 8 Days", "setting": "[1]; 500 ppm in acrylic latex paint", "value": 0}, {"measurement": "Performance Ratings Week 2, 1 Day", "setting": "[1]; 500 ppm in acrylic latex paint", "value": 4}, {"measurement": "Performance Ratings Week 2, 2 Days", "setting": "[1]; 500 ppm in acrylic latex paint", "value": 4}, {"measurement": "Performance Ratings Week 2, 8 Days", "setting": "[1]; 500 ppm in acrylic latex paint", "value": 0}, {"measurement": "QB", "setting": "Saccharomyces cervisiae", "value": 61, "unit": "ppm"}, {"measurement": "QB", "setting": "Pseudomonas aeruginosa; calcium gluconate-BIT series", "value": 85, "unit": "ppm"}, {"measurement": "QB", "setting": "Pseudomonas aeruginosa; calcium glycerate-BIT series", "value": 27.5, "unit": "ppm"}, {"measurement": "QB", "setting": "Pseudomonas aeruginosa; zinc gluconate-BIT series", "value": 661, "unit": "ppm"}]}]}
